# In PMC7089538, “The effects of intra-stomach obestatin administration on intestinal contractility in neonatal piglets fed milk formula” (PLoS ONE, 2020):
# Read-outs that look alike come from different tables or passages of the source. Marks after values point to notes of the source that are not given here. Where no end group is shown, it is not given here.
# Legend:
# [1] = tested on: middle jejunum; assay: ACh-stimulated or atropine-treated contractions; format: in vivo, piglets (Polish Landrace x Pietrain); details: O15: obestatin 15 μg/kg BW intra-stomach every 8 h, 6 days; middle jejunum strips; atropine pretreatment (ATR^-6); mean ± SEM
# Method: (§1) Piglets' BW was recorded every morning. […] The protein concentration in the milk formula was 20%. […] The tissues were attached to isotonic transducers (Letica Scientific Instruments, Spain) under a load of 1.0 g that were coupled with a PowerLab recording system (ADInstruments, Sydney, Australia). […] The tissues were then washed and allowed to equilibrate. […] Half of randomly selected jejunal segments were pre-treated with atropine.
# [2] = tested on: duodenum; assay: ACh-stimulated or atropine-treated contractions; format: in vivo, piglets (Polish Landrace x Pietrain); details: 6 days, duodenum strips, mean ± SEM
# Method: as §1
# [3] = tested on: duodenum; details: duodenum strips; for EFS-evoked amplitude of contraction: 6 days, mean ± SEM
# [4] = tested on: middle jejunum; assay: Histology: thickness of intestinal muscularis layer; format: in vivo, piglets (Polish Landrace x Pietrain); details: 6 days, H&E histometry, mean ± SEM
# Method: (§2) Piglets' BW was recorded every morning. […] The protein concentration in the milk formula was 20%. […] Briefly, the samples were routinely embedded in paraffin and cut into 4.5 μm sections and applied to silane-treated slides. Next, the sections were immersed in xylene for dewaxing and then in descending grades of alcohol for rehydration. The segments were routinely stained using hematoxylin and eosin.
# [5] = tested on: duodenum; assay: as above; format: in vivo, piglets (Polish Landrace x Pietrain); details: 6 days, H&E histometry, mean ± SEM
# Method: as §2
# [6] = tested on: duodenum; assay: ACh-stimulated or atropine-treated contractions; format: in vivo, piglets (Polish Landrace x Pietrain); details: 6 days, duodenum strips, atropine pretreatment (ATR^-6), mean ± SEM
# [7] = O2: obestatin 2 μg/kg BW intra-stomach every 8 h
# [8] = O10: obestatin 10 μg/kg BW intra-stomach every 8 h
# [9] = O15: obestatin 15 μg/kg BW intra-stomach every 8 h
substance,measurement,setting,value
FNAPFDVGIKLSGAQYQQHGRAL-NH2 [obestatin],amplitude of atropine treated contractions,[1],1.20 ± 0.1^b mm
same,amplitude of ACh stimulated contractions,"[2]; O2: obestatin 2 μg/kg BW intra-stomach every 8 h, ACh^-4 (10^−4 M, cumulative)",14.1 ± 1.2^a^b mm
same,amplitude of ACh stimulated contractions,"[2]; O2: obestatin 2 μg/kg BW intra-stomach every 8 h, ACh^-5 (10^−5 M, cumulative)",11.2 ± 0.7 mm
same,amplitude of ACh stimulated contractions,"[2]; O2: obestatin 2 μg/kg BW intra-stomach every 8 h, ACh^-6 (10^−6 M, cumulative)",7.4 ± 0.9 mm
same,amplitude of ACh stimulated contractions,"[2]; O2: obestatin 2 μg/kg BW intra-stomach every 8 h, ACh^-7 (10^−7 M, cumulative)",7.1 ± 0.7 mm
same,amplitude of ACh stimulated contractions,"[2]; O2: obestatin 2 μg/kg BW intra-stomach every 8 h, ACh^-8 (10^−8 M, cumulative)",7.0 ± 0.7 mm
same,amplitude of ACh stimulated contractions,"[2]; O2: obestatin 2 μg/kg BW intra-stomach every 8 h, ACh^-9 (10^−9 M, cumulative)",6.2 ± 0.3 mm
same,amplitude of atropine treated contractions,"[2]; O2: obestatin 2 μg/kg BW intra-stomach every 8 h, atropine pretreatment (ATR^-6)",1.26 ± 0.2 mm
same,amplitude of ACh stimulated contractions,"[2]; O10: obestatin 10 μg/kg BW intra-stomach every 8 h, ACh^-4 (10^−4 M, cumulative)",12.3 ± 1.1^a^b mm
same,amplitude of ACh stimulated contractions,"[2]; O10: obestatin 10 μg/kg BW intra-stomach every 8 h, ACh^-5 (10^−5 M, cumulative)",8.2 ± 0.9 mm
same,amplitude of ACh stimulated contractions,"[2]; O10: obestatin 10 μg/kg BW intra-stomach every 8 h, ACh^-6 (10^−6 M, cumulative)",6.3 ± 0.9 mm
same,amplitude of ACh stimulated contractions,"[2]; O10: obestatin 10 μg/kg BW intra-stomach every 8 h, ACh^-7 (10^−7 M, cumulative)",6.1 ± 0.9 mm
same,amplitude of ACh stimulated contractions,"[2]; O10: obestatin 10 μg/kg BW intra-stomach every 8 h, ACh^-8 (10^−8 M, cumulative)",6.0 ± 0.8 mm
same,amplitude of ACh stimulated contractions,"[2]; O10: obestatin 10 μg/kg BW intra-stomach every 8 h, ACh^-9 (10^−9 M, cumulative)",5.9 ± 0.9 mm
same,amplitude of ACh stimulated contractions,"[2]; O15: obestatin 15 μg/kg BW intra-stomach every 8 h, ACh^-4 (10^−4 M, cumulative)",15.1 ± 0.4^b mm
same,amplitude of ACh stimulated contractions,"[2]; O15: obestatin 15 μg/kg BW intra-stomach every 8 h, ACh^-5 (10^−5 M, cumulative)",9.6 ± 0.6 mm
same,amplitude of ACh stimulated contractions,"[2]; O15: obestatin 15 μg/kg BW intra-stomach every 8 h, ACh^-6 (10^−6 M, cumulative)",6.7 ± 0.8 mm
same,amplitude of ACh stimulated contractions,"[2]; O15: obestatin 15 μg/kg BW intra-stomach every 8 h, ACh^-7 (10^−7 M, cumulative)",5.9 ± 0.6 mm
same,amplitude of ACh stimulated contractions,"[2]; O15: obestatin 15 μg/kg BW intra-stomach every 8 h, ACh^-8 (10^−8 M, cumulative)",5.4 ± 0.4 mm
same,amplitude of ACh stimulated contractions,"[2]; O15: obestatin 15 μg/kg BW intra-stomach every 8 h, ACh^-9 (10^−9 M, cumulative)",5.3 ± 0.5 mm
same,EFS-evoked amplitude of contraction,"[3]; O2: obestatin 2 μg/kg BW intra-stomach every 8 h, Basal, EFS 0.5 Hz",2.53 ± 0.31^a mm
same,EFS-evoked amplitude of contraction,"[3]; O2: obestatin 2 μg/kg BW intra-stomach every 8 h, Basal, EFS 5 Hz",2.78 ± 0.35^a mm
same,EFS-evoked amplitude of contraction,"[3]; O2: obestatin 2 μg/kg BW intra-stomach every 8 h, Basal, EFS 50 Hz",2.95 ± 0.28^a^c mm
same,EFS-evoked amplitude of contraction,"[3]; O2: obestatin 2 μg/kg BW intra-stomach every 8 h, TTX 10^−6 M, EFS 0.5 Hz",0.48 ± 0.11 mm
same,EFS-evoked amplitude of contraction,"[3]; O2: obestatin 2 μg/kg BW intra-stomach every 8 h, TTX 10^−6 M, EFS 5 Hz",0.54 ± 0.11 mm
same,EFS-evoked amplitude of contraction,"[3]; O2: obestatin 2 μg/kg BW intra-stomach every 8 h, TTX 10^−6 M, EFS 50 Hz",0.82 ± 0.21 mm
same,EFS-evoked amplitude of contraction,"[3]; O10: obestatin 10 μg/kg BW intra-stomach every 8 h, Basal, EFS 0.5 Hz",1.08 ± 0.26^b mm
same,EFS-evoked amplitude of contraction,"[3]; O10: obestatin 10 μg/kg BW intra-stomach every 8 h, Basal, EFS 5 Hz",1.25 ± 0.32^b mm
same,EFS-evoked amplitude of contraction,"[3]; O10: obestatin 10 μg/kg BW intra-stomach every 8 h, Basal, EFS 50 Hz",1.20 ± 0.29^a^d mm
same,EFS-evoked amplitude of contraction,"[3]; O10: obestatin 10 μg/kg BW intra-stomach every 8 h, TTX 10^−6 M, EFS 0.5 Hz",0.56 ± 0.16 mm
same,EFS-evoked amplitude of contraction,"[3]; O10: obestatin 10 μg/kg BW intra-stomach every 8 h, TTX 10^−6 M, EFS 5 Hz",0.59 ± 0.15 mm
same,EFS-evoked amplitude of contraction,"[3]; O10: obestatin 10 μg/kg BW intra-stomach every 8 h, TTX 10^−6 M, EFS 50 Hz",0.86 ± 0.22 mm
same,EFS-evoked amplitude of contraction,"[3]; O15: obestatin 15 μg/kg BW intra-stomach every 8 h, Basal, EFS 0.5 Hz",2.34 ± 0.30^a mm
same,EFS-evoked amplitude of contraction,"[3]; O15: obestatin 15 μg/kg BW intra-stomach every 8 h, Basal, EFS 5 Hz",2.74 ± 0.37^a mm
same,EFS-evoked amplitude of contraction,"[3]; O15: obestatin 15 μg/kg BW intra-stomach every 8 h, Basal, EFS 50 Hz",3.38 ± 0.36^b^c mm
same,EFS-evoked amplitude of contraction,"[3]; O15: obestatin 15 μg/kg BW intra-stomach every 8 h, TTX 10^−6 M, EFS 0.5 Hz",0.40 ± 0.09 mm
same,EFS-evoked amplitude of contraction,"[3]; O15: obestatin 15 μg/kg BW intra-stomach every 8 h, TTX 10^−6 M, EFS 5 Hz",0.46 ± 0.01 mm
same,EFS-evoked amplitude of contraction,"[3]; O15: obestatin 15 μg/kg BW intra-stomach every 8 h, TTX 10^−6 M, EFS 50 Hz",0.77 ± 0.22 mm
same,effect of obestatin on EFS-evoked contraction following pre-incubation with TTX,"[3]; TTX 10^−6 M, responses similar to saline-treated preparations",the effects of obestatin were blocked
same,Thickness of muscularis layer,[4]; [7],88 ± 9^a μm
same,Thickness of muscularis layer,[4]; [8],63 ± 7^b μm
same,Thickness of muscularis layer,[4]; [9],66 ± 4^b μm
same,Thickness of muscularis layer,[5]; [7],106 ± 11^b μm
same,Thickness of muscularis layer,[5]; [8],107 ± 8^b μm
same,Thickness of muscularis layer,[5]; [9],89 ± 8^b μm
same,amplitude of atropine treated contractions,[6]; [8],0.97 ± 0.1 mm
same,amplitude of atropine treated contractions,[6]; [9],1.0 ± 0.1 mm
